This assay deals with human Gal-3 (hGal-3) (Homo sapiens (Human), UniProt P17931). In words: competitive binding assay: binding of biotinylated hGal-3 to microplate-adsorbed asialofetuin (ASF), spectrophotometric. The settings on record: Activity on hGal-3; mean values of several measurements. The protocol: Evaluation of Compound Inhibitory Activity (IC50)
Sequence of human Gal-3 (hGal-3) (P17931 whole entry): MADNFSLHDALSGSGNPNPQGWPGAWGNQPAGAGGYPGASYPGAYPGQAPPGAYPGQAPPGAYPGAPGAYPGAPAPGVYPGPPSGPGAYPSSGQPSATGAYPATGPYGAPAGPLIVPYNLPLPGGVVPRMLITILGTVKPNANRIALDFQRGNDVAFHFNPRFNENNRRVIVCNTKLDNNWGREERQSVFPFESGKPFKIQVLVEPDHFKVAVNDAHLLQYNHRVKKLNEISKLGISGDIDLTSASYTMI
The inhibitory activity of compounds is determined in competitive binding assays. This spectrophotometric assay measures the binding of biotinylated human Gal-3 (hGal-3) or human Gal-1 (hGal-1), respectively, to a microplate-adsorbed glycoprotein, asialofetuin (ASF) (Proc Natl Acad Sci USA. 2013 Mar. 26; 110(13):5052-7.). Alternatively, and preferably, a human Gal-1 version in which all six cysteines are substituted by serines may be used.
Briefly, compounds are serially diluted in DMSO (working dilutions). ASF-coated 384 well plates are supplemented with 22.8 μL/well of biotinylated hGal-3 or hGal-1 in assay buffer (i.e. 300-1000 ng/mL biotinylated hGal-3 or hGal-1) to which 1.2 μL of compound working dilutions are added and mixed.
Plates are incubated for 3 hours at 4° C., then washed with cold assay buffer (3×50 uL), incubated for 1 hour with 25 μL/well of a streptavidin-peroxidase solution (diluted in assay buffer to 80 ng/mL) at 4° C., followed by further washing steps with assay buffer (3×50 uL). Finally, 25 μL/well of ABTS substrate is added.
The calculated IC50 values may fluctuate depending on the daily assay performance. Fluctuations of this kind are known to those skilled in the art. IC50 values from several measurements are given as mean values.
`CO[C@@H]1[C@@H](n2cc(-c3ccc(C)c(F)c3F)nn2)[C@@H](O)[C@@H](CO)O[C@H]1C(=O)N(c1cc(Cl)cc(C#N)c1)[C@@H]1CCC[C@H]1O` [Example 1.11.4R, (2R,3R,4S,5R,6R)-N-(3-chloro-5-cyanophenyl)-4-(4-(2,3-difluoro-4-methylphenyl)-1H-1,2,3-triazol-1-yl)-5-hydroxy-N-((1R,2R)-2-hydroxycyclopentyl)-6-(hydroxymethyl)-3-methoxytetrahydro-2H-pyran-2-carboxamide] gave a half-inhibitory concentration (IC50) of 53.9 nM. Then `CO[C@@H]1[C@@H](n2cc(-c3cc(F)cc(Cl)c3)nn2)[C@@H](O)[C@@H](CO)O[C@H]1C(=O)N(c1cc(Br)cc(C#N)c1)[C@H]1CC[C@@H]1O` [Example 2.9.5, (2R,3R,4S,5R,6R)-N-(3-bromo-5-cyanophenyl)-4-(4-(3-chloro-5-fluorophenyl)-1H-1,2,3-triazol-1-yl)-5-hydroxy-N-((1S,2S)-2-hydroxycyclobutyl)-6-(hydroxymethyl)-3-methoxytetrahydro-2H-pyran-2-carboxamide], with 123 nM; and `CO[C@@H]1[C@@H](n2cc(-c3cc(F)c(Cl)c(F)c3)nn2)[C@@H](O)[C@@H](CO)O[C@H]1C(=O)N(c1cc(Cl)cc(C#N)c1)[C@@H]1CCC[C@H]1O` [Example 1.5.4R, (2R,3R,4S,5R,6R)-4-(4-(4-chloro-3,5-difluorophenyl)-1H-1,2,3-triazol-1-yl)-N-(3-chloro-5-cyanophenyl)-5-hydroxy-N-((1R,2R)-2-hydroxycyclopentyl)-6-(hydroxymethyl)-3-methoxytetrahydro-2H-pyran-2-carboxamide], with 153 nM; and `CO[C@@H]1[C@@H](n2cc(-c3cc(F)c(F)c(F)c3)nn2)[C@@H](O)[C@@H](CO)O[C@H]1C(=O)N(c1cccc(I)c1)[C@@H]1CC[C@H]1O` [Example 2.1.6R, (2R,3R,4S,5R,6R)-5-hydroxy-N-((1R,2R)-2-hydroxycyclobutyl)-6-(hydroxymethyl)-N-(3-iodophenyl)-3-methoxy-4-(4-(3,4,5-trifluorophenyl)-1H-1,2,3-triazol-1-yl)tetrahydro-2H-pyran-2-carboxamide], with 232 nM.

`CO[C@@H]1[C@@H](n2cc(-c3ccc(C)c(F)c3F)nn2)[C@@H](O)[C@@H](CO)O[C@H]1C(=O)N(c1cc(Br)cc(C#N)c1)[C@@H]1CC[C@H]1O` [Example 2.11.5R, (2R,3R,4S,5R,6R)-N-(3-bromo-5-cyanophenyl)-4-(4-(2,3-difluoro-4-methylphenyl)-1H-1,2,3-triazol-1-yl)-5-hydroxy-N-((1R,2R)-2-hydroxycyclobutyl)-6-(hydroxymethyl)-3-methoxytetrahydro-2H-pyran-2-carboxamide] registered a half-maximal inhibitory concentration (IC50) of 98.7 nM. As for `COc1cc(-c2cn([C@H]3[C@@H](O)[C@@H](CO)O[C@@H](C(=O)N(c4cc(Cl)cc(Cl)c4)[C@@H]4CC[C@H]4O)[C@@H]3OC)nn2)cc(F)c1F` [Example 2.3.2R, (2R,3R,4S,5R,6R)-N-(3,5-dichlorophenyl)-4-(4-(3,4-difluoro-5-methoxyphenyl)-1H-1,2,3-triazol-1-yl)-5-hydroxy-N-((1R,2R)-2-hydroxycyclobutyl)-6-(hydroxymethyl)-3-methoxytetrahydro-2H-pyran-2-carboxamide], the figure is 190 nM; as for `O=C([C@@H]1O[C@H](CO)[C@H](O)[C@H](n2cc(-c3cc(F)c(Cl)c(F)c3)nn2)[C@H]1O)N(c1cc(Cl)cc(Cl)c1)[C@H]1CCC[C@@H]1O` [Example 1H.5.2, (2R,3R,4S,5R,6R)-4-(4-(4-chloro-3,5-difluorophenyl)-1H-1,2,3-triazol-1-yl)-N-(3,5-dichlorophenyl)-3,5-dihydroxy-N-((1S,2S)-2-hydroxycyclopentyl)-6-(hydroxymethyl)tetrahydro-2H-pyran-2-carboxamide], 14.3 nM.

In general, IC50 refers to the concentration that inhibits the measured activity by half. A lower IC50 goes with inhibition by little substance.

The record behind these values is patent publication US20230348442A1, “GALECTIN-3 INHIBITING 2-HYDROXYCYCLOALKANE-1-CARBAMOYL DERIVATIVES” (Idorsia Pharmaceuticals Ltd, priority 2020, published 2023).
